# Laboratory results taken from patent US20240278234A1, “SAMPLE PREPARATION” (priority 2021, published 2024).
# Test system: SARS-CoV-2 target genes E gene, RdRP gene and human RP (positive control)
# Assay: RT-qPCR amplification (YouSeq E-RdRP kit) in the presence of lysis agents: test for PCR inhibition
# Type: biochemical
# Details: for qPCR amplification curves, FIG. 4: 2%-0.2% agent; for qPCR amplification curves, FIG. 5: 0.2% and 0.06% agent; for inhibition of amplification (summary of FIGS. 4 and 5): agents tested at 2%, 0.6%, 0.2% and 0.02%, 45 cycles
# Description: An E-RdRP kit from YouSeq was used, which is designed to detect SARS-CoV-2, and includes a positive control containing the SARS-CoV-2 target genes E gene, RdRP gene and human RP (as an internal control). Each reaction included: • 10 μL MasterMix • 1 μL Primer/Probe • 3 μL Water • 1 μL Template or Water • 5 μL Buffers
# PCR was carried out under the following conditions: • 55 C for 10 mins RT Step • 95 C for 3 mins denaturation • x45 Cycles • 95 C for 15 secs • 60 C for 60 secs
# Amplification was monitored using a Quantstudio Q5.
Structure (SMILES),"qPCR amplification curves, FIG. 4","qPCR amplification curves, FIG. 5",inhibition of amplification (summary of FIGS. 4 and 5)
CC(C)=CCCC(C)=CC=O [citral],clear inhibitory effect between 2%-0.2%,no significant inhibition,inhibit at higher concentrations
[H]/N=C(\N/C(=N/[H])NCCCCCCNC(=N)NC(=N)Nc1ccc(Cl)cc1)Nc1ccc(Cl)cc1 [chlorhexidine],Clear PCR inhibitions,no significant inhibition,inhibit at higher concentrations
